Biological target: T1, human factor Xa (Homo sapiens, UniProt P00742)
T1 construct: Factor Xa is a serine endopeptidase composed of two disulfide-linked subunits; purchased Enzyme Research Laboratories
Experiment: Factor Xa chromogenic peptide substrate (S-2222) assay
Assay type: biochemical
Settings: apparent Ki by Cheng-Prusoff from IC50; human factor Xa 3 nM, substrate S-2222, pH 7.8, room temperature
Method: Factor Xa activity was measured spectrophotometrically in microtiter plates in a final volume of 150 μl using the following conditions: Inhibition of human factor Xa (Enzyme Research Laboratories) was tested at an enzyme concentration of 3 nM using the chromogenic substrate S-2222 (Chromogenix AB, Mölndal, Sweden) at 200 nM. The reaction kinetics of the enzyme and the substrate were linear with both time and the enzyme concentration. The inhibitors were dissolved in DMSO and tested at various concentrations up to 100 μM. The inhibitors were diluted using HNPT buffer consisting of HEPES 100 mMM, NaCl 140 mM, PEG 6000 0.1% and Tween 80 0.02%, pH 7.8. […] The velocity of the reaction was determined by the autoreader from the slope of the linear regression fit to 7 time points (1 minute). The initial velocity for each inhibitor concentration was determined by the slope of at least 4 time points in the linear phase by a linear regression fit (mOD/min^2). Apparent dissociation constants Ki were calculated according to Cheng and Prusoff [Cheng, Y. C.; Prusoff, W. H. Relationship between the inhibition constant (Ki) and the concentration of the inhibitor that causes 50 percent inhibition (IC50) of an enzyme reaction. Biochem. Pharmacol. 1973, 22, 3099-3108.] based on the IC50 and the respective Km, determined previously (Ki=IC50/(1+S/Km)). […]

T1 sequence (P00742 235-488 limits assumed): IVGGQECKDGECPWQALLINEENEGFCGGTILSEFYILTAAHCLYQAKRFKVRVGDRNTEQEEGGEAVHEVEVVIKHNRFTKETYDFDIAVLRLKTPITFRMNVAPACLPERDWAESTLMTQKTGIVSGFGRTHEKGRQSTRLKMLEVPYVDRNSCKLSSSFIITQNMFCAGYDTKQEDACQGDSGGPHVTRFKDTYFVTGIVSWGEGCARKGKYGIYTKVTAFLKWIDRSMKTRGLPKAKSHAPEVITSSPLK
T1 sequence (P00742 41-179 partner limits assumed): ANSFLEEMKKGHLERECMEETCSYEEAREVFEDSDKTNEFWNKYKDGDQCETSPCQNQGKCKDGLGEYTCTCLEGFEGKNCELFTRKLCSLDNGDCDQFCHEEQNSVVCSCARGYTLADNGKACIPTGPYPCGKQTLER

Structure (SMILES): O=C(Nc1ccc(-n2ccncc2=O)cc1F)c1nc(CNC(=O)c2ccc(Cl)s2)no1 [Example 3, 3-{[(5-chloro-thiophene-2-carbonyl)-amino]-methyl}-[1,2,4]oxadiazole-5-carboxylic acid [2-fluoro-4-(2-oxo-2H-pyrazine-1-yl)-phenyl]-amide]
- Ki: 0.007 µM

Structure (SMILES): O=C(Nc1ccc(N2CCOCC2=O)cc1)c1nc(CNC(=O)c2ccc(Cl)s2)no1 [Example 5, 3-{[(5-chloro-thiophene-2-carbonyl)-amino]-methyl}-[1,2,4]oxadiazole-5-carboxylic acid [4-(3-oxo-morpholin-4-yl)-phenyl]-amide]
- Ki: 0.016 µM
